Measurements published in US20060074091A1, “Nootropic effect enhancer” (priority 2000, published 2006).

System: Fischer male rats with Meynert's basal nuclei damage
Test: Passive avoidance learning test (mneme test) in rats with ibotenic acid injury of Meynert's basal nuclei
Assay type: in vivo, rat
Settings: 0.1 mg/kg
Protocol: A solution prepared by dissolving ibotenic acid in physiological saline to have a concentration of 8 μg/μl was injected into the Meynert's basal nuclei of Fischer male rats (n=12 to 13, 11-weeks old when used in the experiment). One μl of the solution was injected thereinto over a period of 6 minutes, and then the rats were left as they were for 5 minutes to thereby make them have bilateral injury. Three weeks after the treatment, they were used in the experiment. Before the experiment, they were handled for 3 days. In the mneme test, the rats were first put into the light room of a passive avoidance learning test device, and the latent time taken before they entered the dark room was measured (acclimation trial). […] Then, the rats were made to receive electric shock (0.4 mA, 4 seconds) via the grid of the floor of the dark room (acquirement trial) 24 hours after the acquirement trial, the rats were again transferred into the light room, and the reaction latent time taken before the rats entered the dark room was measured up to at most 300 seconds (retention trial). […] The dose of each of the two substances was determined on the basis of the test results previously made for the efficacy of the single administration of each substance to the same models. […]

Compound | effect on reaction latent time in single administration (in words)
COc1cc2c(cc1OC)C(=O)C(CC1CCN(Cc3ccccc3)CC1)C2.Cl (centres unmarked) [E2020, Donepedil Hydrochloride] | ineffective
CC(=O)N1CCN(NC(=O)c2ccc(F)cc2)CC1 [FK960, N-(4-acetyl-1-piperazinyl)-p-fluorobenzamide Monohydrate] | ineffective
